2 compounds from patent US8703965B2, “Preparation of saturated imidazolinium salts and related compounds” (Materia, Inc., priority 2007, dated 2014) can be followed below.

The nature of this data set: Solubility of the salts in different solvents at different temperature (basis for the separation).

From the text: The principle to separate the two salts is the solubility in different solvents at different temperature.

`Cc1cc(C)c(N2C=[N+](c3c(C)cc(C)cc3C)CC2)c(C)c1.[Br-]` [sIMes-HBr, 1,3-Dimesitylimidazolinium Bromide]: where the note is “Room Temperature”, the Solubility in acetone result is given as “slightly soluble”, the Solubility in hexane entry was “not soluble”, the Solubility in toluene entry is recorded as “not soluble” and the Solubility in water result was “slightly soluble”.
As to `Br.CCN(C(C)C)C(C)C` [i-Pr2NEt—HBr], where the note is “Room Temperature”, the Solubility in acetone entry is given as “soluble”, the Solubility in hexane result is listed as “not soluble”, the Solubility in toluene entry is “not soluble” and the Solubility in water result is “very soluble”. Besides, under “100 C.”, the Solubility in toluene result is reported as “soluble”.
